Assay results as given in ChEMBL document CHEMBL1136264, “Syntheses of sphingosine-1-phosphate stereoisomers and analogues and their interaction with EDG receptors” (Bioorg Med Chem Lett, 2003).
Activity calls are given as the source filed them. The calls are words filed in the database; no cut-off is given here.

Experiments:
Type in all cases: cell-based
[1] = biological target: Sphingosine 1-phosphate receptor 2 (Homo sapiens) (UniProt O95136); assay: In vitro binding affinity towards Endothelial differentiation G-protein coupled receptor 5 in CHO cells using [3H]S1P as radioligand relative to SIP; Not active
Sequence of Sphingosine 1-phosphate receptor 2 (Homo sapiens) (O95136 whole entry): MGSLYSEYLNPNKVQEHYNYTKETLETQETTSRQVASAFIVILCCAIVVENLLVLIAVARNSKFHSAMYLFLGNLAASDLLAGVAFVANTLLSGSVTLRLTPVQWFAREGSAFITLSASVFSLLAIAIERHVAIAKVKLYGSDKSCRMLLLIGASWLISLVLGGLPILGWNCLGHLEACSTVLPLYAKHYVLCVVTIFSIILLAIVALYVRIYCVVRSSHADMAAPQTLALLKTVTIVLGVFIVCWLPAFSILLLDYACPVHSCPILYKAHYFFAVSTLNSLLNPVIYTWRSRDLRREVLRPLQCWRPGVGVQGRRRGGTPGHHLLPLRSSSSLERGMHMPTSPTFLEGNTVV

[2] = biological target: Sphingosine 1-phosphate receptor 1 (Homo sapiens) (UniProt P21453); assay: In vitro binding affinity towards Endothelial differentiation G-protein coupled receptor 1 in CHO cells using [3H]S1P as radioligand relative to SIP; Not active
Sequence of Sphingosine 1-phosphate receptor 1 (Homo sapiens) (P21453 whole entry): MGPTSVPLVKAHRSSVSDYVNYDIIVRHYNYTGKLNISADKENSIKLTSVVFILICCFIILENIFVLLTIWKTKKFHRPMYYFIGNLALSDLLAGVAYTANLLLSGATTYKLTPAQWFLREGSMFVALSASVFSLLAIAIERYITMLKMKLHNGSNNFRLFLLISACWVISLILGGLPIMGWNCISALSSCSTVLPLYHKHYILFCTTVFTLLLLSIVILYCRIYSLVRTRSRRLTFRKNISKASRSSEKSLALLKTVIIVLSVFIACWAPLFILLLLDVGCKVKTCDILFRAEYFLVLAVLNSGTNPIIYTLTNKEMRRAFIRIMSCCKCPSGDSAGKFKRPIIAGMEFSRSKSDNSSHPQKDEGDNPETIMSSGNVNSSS

[3] = biological target: Sphingosine 1-phosphate receptor 3 (Homo sapiens) (UniProt Q99500); assay: In vitro binding affinity towards Endothelial differentiation G-protein coupled receptor 3 in CHO cells using [3H]S1P as radioligand relative to SIP; Not active
Sequence of Sphingosine 1-phosphate receptor 3 (Homo sapiens) (Q99500 whole entry): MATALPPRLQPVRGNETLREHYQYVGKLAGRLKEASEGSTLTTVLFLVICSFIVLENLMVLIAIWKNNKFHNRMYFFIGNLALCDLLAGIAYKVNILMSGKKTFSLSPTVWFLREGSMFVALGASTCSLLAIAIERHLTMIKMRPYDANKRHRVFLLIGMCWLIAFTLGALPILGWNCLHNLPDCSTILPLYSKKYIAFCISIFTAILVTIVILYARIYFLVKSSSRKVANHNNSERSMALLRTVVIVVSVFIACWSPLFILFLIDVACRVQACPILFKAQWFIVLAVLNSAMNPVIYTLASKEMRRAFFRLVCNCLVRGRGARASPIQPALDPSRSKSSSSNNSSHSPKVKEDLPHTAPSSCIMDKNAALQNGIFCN

[4] = biological target: Sphingosine 1-phosphate receptor 1 (Homo sapiens) (UniProt P21453); assay: In vitro binding affinity towards Endothelial differentiation G-protein coupled receptor 1 in CHO cells using [3H]S1P as radioligand relative to SIP
[5] = biological target: Sphingosine 1-phosphate receptor 3 (Homo sapiens) (UniProt Q99500); assay: In vitro binding affinity towards Endothelial differentiation G-protein coupled receptor 3 in CHO cells using [3H]S1P as radioligand relative to SIP
[6] = biological target: Sphingosine 1-phosphate receptor 2 (Homo sapiens) (UniProt O95136); assay: In vitro binding affinity towards Endothelial differentiation G-protein coupled receptor 5 in CHO cells using [3H]S1P as radioligand relative to SIP

Structure (SMILES)	Relative binding affinity [1]	Relative binding affinity [2]	Relative binding affinity [3]	Relative binding affinity [4]	Relative binding affinity [5]	Relative binding affinity [6]
CCCCCCCCCCCCCCC[C@H](O)[C@H](N)COP(=O)(O)O	inactive	inactive	inactive	–	–	–
CCCCCCCCCCCCCCC[C@H](O)[C@@H](N)COP(=O)(O)O	–	–	–	12%	51%	30%
CCCCCCCCCCCCCCCC[C@@H](N)COP(=O)(O)O	–	–	–	–	29%	–
CCCCCCCCCCCCC/C=C/[C@@H](O)[C@@H](N)COP(=O)(OC)OC	inactive	inactive	inactive	–	–	–
CCCCCCCCCCCCCCC[C@@H](O)[C@@H](N)COP(=O)(O)O	–	–	–	41%	86%	54%
CCCCCCCCCCCCC/C=C/[C@H](O)[C@@H](N)COP(=O)(O)O	–	–	–	27%	46%	23%
CCCCCCCCCCCCC/C=C/[C@H](O)[C@H](N)COP(=O)(O)O	–	–	–	7.4%	20%	41%
